Source: BigSolDB 2.1

CC(CCC(=O)O)(c1ccc(O)cc1)c1ccc(O)cc1
solubility (mole fraction) (in acetone, 288.15 K): 0.125
solubility (mole fraction) (in acetone, 291.15 K): 0.127
solubility (mole fraction) (in acetone, 294.15 K): 0.13
solubility (mole fraction) (in acetone, 297.15 K): 0.134
solubility (mole fraction) (in acetone, 300.15 K): 0.137
solubility (mole fraction) (in acetone, 303.15 K): 0.14
solubility (mole fraction) (in acetone, 306.15 K): 0.143
solubility (mole fraction) (in acetone, 309.15 K): 0.146
solubility (mole fraction) (in acetone, 312.15 K): 0.15
solubility (mole fraction) (in acetone, 315.15 K): 0.153
solubility (mole fraction) (in acetone, 318.15 K): 0.157
solubility (mole fraction) (in acetonitrile, 288.15 K): 0.00804
solubility (mole fraction) (in acetonitrile, 291.15 K): 0.00871
solubility (mole fraction) (in acetonitrile, 294.15 K): 0.00973
solubility (mole fraction) (in acetonitrile, 297.15 K): 0.0106
solubility (mole fraction) (in acetonitrile, 300.15 K): 0.0116
solubility (mole fraction) (in acetonitrile, 303.15 K): 0.013
solubility (mole fraction) (in acetonitrile, 306.15 K): 0.0144
solubility (mole fraction) (in acetonitrile, 309.15 K): 0.0162
solubility (mole fraction) (in acetonitrile, 312.15 K): 0.0181
solubility (mole fraction) (in acetonitrile, 315.15 K): 0.0208
solubility (mole fraction) (in acetonitrile, 318.15 K): 0.0238
solubility (mole fraction) (in ethanol, 288.15 K): 0.0989
solubility (mole fraction) (in ethanol, 291.15 K): 0.103
solubility (mole fraction) (in ethanol, 294.15 K): 0.107
solubility (mole fraction) (in ethanol, 297.15 K): 0.11
solubility (mole fraction) (in ethanol, 300.15 K): 0.114
solubility (mole fraction) (in ethanol, 303.15 K): 0.118
solubility (mole fraction) (in ethanol, 306.15 K): 0.123
solubility (mole fraction) (in ethanol, 309.15 K): 0.129
solubility (mole fraction) (in ethanol, 312.15 K): 0.136
solubility (mole fraction) (in ethanol, 315.15 K): 0.142
solubility (mole fraction) (in ethanol, 318.15 K): 0.148
solubility (mole fraction) (in ethyl acetate, 288.15 K): 0.0498
solubility (mole fraction) (in ethyl acetate, 291.15 K): 0.0509
solubility (mole fraction) (in ethyl acetate, 294.15 K): 0.052
solubility (mole fraction) (in ethyl acetate, 297.15 K): 0.0533
solubility (mole fraction) (in ethyl acetate, 300.15 K): 0.0553
solubility (mole fraction) (in ethyl acetate, 303.15 K): 0.0576
solubility (mole fraction) (in ethyl acetate, 306.15 K): 0.0604
solubility (mole fraction) (in ethyl acetate, 309.15 K): 0.0637
solubility (mole fraction) (in ethyl acetate, 312.15 K): 0.0667
solubility (mole fraction) (in ethyl acetate, 315.15 K): 0.0696
solubility (mole fraction) (in ethyl acetate, 318.15 K): 0.0727
solubility (mole fraction) (in ethyl formate, 288.15 K): 0.0113
solubility (mole fraction) (in ethyl formate, 291.15 K): 0.0116
solubility (mole fraction) (in ethyl formate, 294.15 K): 0.012
solubility (mole fraction) (in ethyl formate, 297.15 K): 0.0127
solubility (mole fraction) (in ethyl formate, 300.15 K): 0.0136
solubility (mole fraction) (in ethyl formate, 303.15 K): 0.0146
solubility (mole fraction) (in ethyl formate, 306.15 K): 0.0155
solubility (mole fraction) (in ethyl formate, 309.15 K): 0.0166
solubility (mole fraction) (in ethyl formate, 312.15 K): 0.0183
solubility (mole fraction) (in ethyl formate, 315.15 K): 0.0202
solubility (mole fraction) (in ethyl formate, 318.15 K): 0.0221
solubility (mole fraction) (in isopropanol, 288.15 K): 0.063
solubility (mole fraction) (in isopropanol, 291.15 K): 0.0631
solubility (mole fraction) (in isopropanol, 294.15 K): 0.0634
solubility (mole fraction) (in isopropanol, 297.15 K): 0.0637
solubility (mole fraction) (in isopropanol, 300.15 K): 0.0651
solubility (mole fraction) (in isopropanol, 303.15 K): 0.0665
solubility (mole fraction) (in isopropanol, 306.15 K): 0.0687
solubility (mole fraction) (in isopropanol, 309.15 K): 0.0718
solubility (mole fraction) (in isopropanol, 312.15 K): 0.077
solubility (mole fraction) (in isopropanol, 315.15 K): 0.0829
solubility (mole fraction) (in isopropanol, 318.15 K): 0.0914
solubility (mole fraction) (in methanol, 288.15 K): 0.096
solubility (mole fraction) (in methanol, 291.15 K): 0.0983
solubility (mole fraction) (in methanol, 294.15 K): 0.101
solubility (mole fraction) (in methanol, 297.15 K): 0.104
solubility (mole fraction) (in methanol, 300.15 K): 0.106
solubility (mole fraction) (in methanol, 303.15 K): 0.11
solubility (mole fraction) (in methanol, 306.15 K): 0.114
solubility (mole fraction) (in methanol, 309.15 K): 0.119
solubility (mole fraction) (in methanol, 312.15 K): 0.123
solubility (mole fraction) (in methanol, 315.15 K): 0.127
solubility (mole fraction) (in methanol, 318.15 K): 0.131
solubility (mole fraction) (in methyl acetate, 288.15 K): 0.0453
solubility (mole fraction) (in methyl acetate, 291.15 K): 0.0477
solubility (mole fraction) (in methyl acetate, 294.15 K): 0.0497
solubility (mole fraction) (in methyl acetate, 297.15 K): 0.0526
solubility (mole fraction) (in methyl acetate, 300.15 K): 0.0559
solubility (mole fraction) (in methyl acetate, 303.15 K): 0.0594
solubility (mole fraction) (in methyl acetate, 306.15 K): 0.063
solubility (mole fraction) (in methyl acetate, 309.15 K): 0.0668
solubility (mole fraction) (in methyl acetate, 312.15 K): 0.0713
solubility (mole fraction) (in methyl acetate, 315.15 K): 0.0775
solubility (mole fraction) (in methyl acetate, 318.15 K): 0.085
solubility (mole fraction) (in n-butanol, 288.15 K): 0.0712
solubility (mole fraction) (in n-butanol, 291.15 K): 0.0763
solubility (mole fraction) (in n-butanol, 294.15 K): 0.0814
solubility (mole fraction) (in n-butanol, 297.15 K): 0.0867
solubility (mole fraction) (in n-butanol, 300.15 K): 0.0919
solubility (mole fraction) (in n-butanol, 303.15 K): 0.0971
solubility (mole fraction) (in n-butanol, 306.15 K): 0.102
solubility (mole fraction) (in n-butanol, 309.15 K): 0.107
solubility (mole fraction) (in n-butanol, 312.15 K): 0.112
solubility (mole fraction) (in n-butanol, 315.15 K): 0.116
solubility (mole fraction) (in n-butanol, 318.15 K): 0.12
solubility (mole fraction) (in n-butyl acetate, 288.15 K): 0.0117
solubility (mole fraction) (in n-butyl acetate, 291.15 K): 0.0143
solubility (mole fraction) (in n-butyl acetate, 294.15 K): 0.0169
solubility (mole fraction) (in n-butyl acetate, 297.15 K): 0.0199
solubility (mole fraction) (in n-butyl acetate, 300.15 K): 0.0227
solubility (mole fraction) (in n-butyl acetate, 303.15 K): 0.0258
solubility (mole fraction) (in n-butyl acetate, 306.15 K): 0.029
solubility (mole fraction) (in n-butyl acetate, 309.15 K): 0.0325
solubility (mole fraction) (in n-butyl acetate, 312.15 K): 0.0356
solubility (mole fraction) (in n-butyl acetate, 315.15 K): 0.039
solubility (mole fraction) (in n-butyl acetate, 318.15 K): 0.0428
solubility (mole fraction) (in n-propanol, 288.15 K): 0.0352
solubility (mole fraction) (in n-propanol, 291.15 K): 0.0384
solubility (mole fraction) (in n-propanol, 294.15 K): 0.0416
solubility (mole fraction) (in n-propanol, 297.15 K): 0.046
solubility (mole fraction) (in n-propanol, 300.15 K): 0.0502
solubility (mole fraction) (in n-propanol, 303.15 K): 0.0541
solubility (mole fraction) (in n-propanol, 306.15 K): 0.0588
solubility (mole fraction) (in n-propanol, 309.15 K): 0.0631
solubility (mole fraction) (in n-propanol, 312.15 K): 0.0671
solubility (mole fraction) (in n-propanol, 315.15 K): 0.0732
solubility (mole fraction) (in n-propanol, 318.15 K): 0.0803
solubility (mole fraction) (in n-propyl acetate, 288.15 K): 0.0291
solubility (mole fraction) (in n-propyl acetate, 291.15 K): 0.0298
solubility (mole fraction) (in n-propyl acetate, 294.15 K): 0.0309
solubility (mole fraction) (in n-propyl acetate, 297.15 K): 0.032
solubility (mole fraction) (in n-propyl acetate, 300.15 K): 0.0336
solubility (mole fraction) (in n-propyl acetate, 303.15 K): 0.0358
solubility (mole fraction) (in n-propyl acetate, 306.15 K): 0.0379
solubility (mole fraction) (in n-propyl acetate, 309.15 K): 0.0403
solubility (mole fraction) (in n-propyl acetate, 312.15 K): 0.0433
solubility (mole fraction) (in n-propyl acetate, 315.15 K): 0.0472
solubility (mole fraction) (in n-propyl acetate, 318.15 K): 0.0507
solubility (mole fraction) (in sec-butanol, 288.15 K): 0.0823
solubility (mole fraction) (in sec-butanol, 291.15 K): 0.0876
solubility (mole fraction) (in sec-butanol, 294.15 K): 0.0926
solubility (mole fraction) (in sec-butanol, 297.15 K): 0.0978
solubility (mole fraction) (in sec-butanol, 300.15 K): 0.103
solubility (mole fraction) (in sec-butanol, 303.15 K): 0.11
solubility (mole fraction) (in sec-butanol, 306.15 K): 0.117
solubility (mole fraction) (in sec-butanol, 309.15 K): 0.124
solubility (mole fraction) (in sec-butanol, 312.15 K): 0.129
solubility (mole fraction) (in sec-butanol, 315.15 K): 0.135
solubility (mole fraction) (in sec-butanol, 318.15 K): 0.14
